Here are results for 2 compounds from article PMC8470274, “Comprehensive Investigation of Stereoselective Food Drug Interaction Potential of Resveratrol on Nine P450 and Six UGT Isoforms in Human Liver Microsomes” (Pharmaceutics, 2021).

One assay addresses T1, UGT1A4 (Homo sapiens, UniProt P22310).
T1 construct: native enzyme in pooled human liver microsomes (alamethicin-treated), read by trifluoperazine glucuronidation
T1 sequence (P22310 29-534): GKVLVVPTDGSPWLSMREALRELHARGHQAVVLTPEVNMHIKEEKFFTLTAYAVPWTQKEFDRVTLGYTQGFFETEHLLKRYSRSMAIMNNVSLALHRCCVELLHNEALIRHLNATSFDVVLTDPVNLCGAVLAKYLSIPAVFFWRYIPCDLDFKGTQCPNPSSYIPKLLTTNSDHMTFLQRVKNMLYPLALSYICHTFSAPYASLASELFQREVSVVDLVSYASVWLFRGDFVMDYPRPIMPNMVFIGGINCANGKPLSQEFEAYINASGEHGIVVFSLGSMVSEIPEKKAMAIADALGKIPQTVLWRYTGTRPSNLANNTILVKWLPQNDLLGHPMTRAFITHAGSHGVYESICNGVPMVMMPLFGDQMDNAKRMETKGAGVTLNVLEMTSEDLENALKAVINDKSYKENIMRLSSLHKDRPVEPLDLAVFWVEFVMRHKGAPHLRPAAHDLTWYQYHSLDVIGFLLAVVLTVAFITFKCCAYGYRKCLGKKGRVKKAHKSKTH
Nature of the assay: HLM UGT substrate cocktail, LC-MS/MS. The assay is classed as biochemical. Conditions: trifluoperazine 0.5 µM; UDPGA 5 mM; alamethicin; 0.25 mg/mL HLM; 37 °C; read-out: Trans-Resveratrol. From the text:
HLM UGT substrate cocktail, LC-MS/MS on UGT1A4

The test system of assay [1] is T2, CYP3A.
T2 construct: gene CYP3A4; native CYP3A in pooled human liver microsomes, read by midazolam 1'-hydroxylation (nifedipine as second probe)
Put plainly: HLM substrate cocktail, LC-MS/MS. The assay is classed as biochemical, Homo sapiens. Conditions: midazolam 0.1 µM, NADPH-generating system, 0.25 mg/mL HLM, 37 °C, without 30 min preincubation. From the text:
HLM substrate cocktail, LC-MS/MS on CYP3A

Assay [2] addresses T3, UGT1A1 (Homo sapiens, UniProt P22309).
T3 construct: native enzyme in pooled human liver microsomes (alamethicin-treated), read by SN-38 glucuronidation
T3 sequence (P22309 26-533): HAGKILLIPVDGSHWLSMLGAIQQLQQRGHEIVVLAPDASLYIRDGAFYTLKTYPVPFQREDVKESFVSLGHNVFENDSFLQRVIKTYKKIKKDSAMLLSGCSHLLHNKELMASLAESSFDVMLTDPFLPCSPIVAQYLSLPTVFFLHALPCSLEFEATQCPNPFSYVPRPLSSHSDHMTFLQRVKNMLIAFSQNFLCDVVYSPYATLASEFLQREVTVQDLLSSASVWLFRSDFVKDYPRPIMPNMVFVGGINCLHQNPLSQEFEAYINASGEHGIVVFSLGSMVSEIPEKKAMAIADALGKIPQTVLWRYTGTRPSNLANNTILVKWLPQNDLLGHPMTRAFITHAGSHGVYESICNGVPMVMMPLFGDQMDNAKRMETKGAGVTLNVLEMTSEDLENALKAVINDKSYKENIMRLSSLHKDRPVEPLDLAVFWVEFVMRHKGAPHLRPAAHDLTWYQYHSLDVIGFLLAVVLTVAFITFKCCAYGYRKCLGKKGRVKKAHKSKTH
Put plainly: HLM inhibition kinetics, Dixon / Lineweaver-Burk, LC-MS/MS. The assay is classed as biochemical. Conditions: SN-38 0.5-10 µM; UDPGA; noncompetitive; read-out: trans-Resveratrol / Without Preincubation / Ki.

The target in assay [3] is T2, CYP3A. The assay is described as above. The assay is classed as biochemical, Homo sapiens. Conditions: midazolam 0.1-2 µM; NADPH-generating system; without preincubation; noncompetitive; read-out: trans-Resveratrol / Without Preincubation / Ki.
Description: HLM inhibition kinetics, Dixon / Lineweaver-Burk, LC-MS/MS on CYP3A
The next assay deals with T4, UGT1A9 (Homo sapiens, UniProt O60656).
T4 construct: native enzyme in pooled human liver microsomes (alamethicin-treated), read by mycophenolic acid glucuronidation
T4 sequence (O60656 26-530): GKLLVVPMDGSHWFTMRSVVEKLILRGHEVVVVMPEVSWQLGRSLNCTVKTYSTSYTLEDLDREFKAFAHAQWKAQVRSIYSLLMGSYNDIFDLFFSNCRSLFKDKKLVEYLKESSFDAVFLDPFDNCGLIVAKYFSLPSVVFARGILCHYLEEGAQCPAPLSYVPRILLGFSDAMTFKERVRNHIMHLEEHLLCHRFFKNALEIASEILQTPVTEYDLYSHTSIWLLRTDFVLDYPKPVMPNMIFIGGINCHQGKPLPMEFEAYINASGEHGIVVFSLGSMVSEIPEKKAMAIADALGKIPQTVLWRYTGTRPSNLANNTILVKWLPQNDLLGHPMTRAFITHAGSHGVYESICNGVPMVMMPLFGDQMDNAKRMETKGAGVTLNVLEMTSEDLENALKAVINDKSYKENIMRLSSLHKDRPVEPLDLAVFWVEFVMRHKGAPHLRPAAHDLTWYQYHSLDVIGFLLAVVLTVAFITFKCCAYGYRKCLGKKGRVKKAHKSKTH
Nature of the assay: HLM UGT substrate cocktail, LC-MS/MS. Conditions: mycophenolic acid 0.2 µM; UDPGA 5 mM; alamethicin; 0.25 mg/mL HLM; 37 °C; read-out: Trans-Resveratrol. The assay is classed as biochemical. The source says:
HLM UGT substrate cocktail, LC-MS/MS on UGT1A9

For another assay, the target named is T5, CYP2A6 (Homo sapiens, UniProt P11509).
T5 construct: native enzyme in pooled human liver microsomes, read by coumarin 7-hydroxylation
T5 sequence (P11509 1-494): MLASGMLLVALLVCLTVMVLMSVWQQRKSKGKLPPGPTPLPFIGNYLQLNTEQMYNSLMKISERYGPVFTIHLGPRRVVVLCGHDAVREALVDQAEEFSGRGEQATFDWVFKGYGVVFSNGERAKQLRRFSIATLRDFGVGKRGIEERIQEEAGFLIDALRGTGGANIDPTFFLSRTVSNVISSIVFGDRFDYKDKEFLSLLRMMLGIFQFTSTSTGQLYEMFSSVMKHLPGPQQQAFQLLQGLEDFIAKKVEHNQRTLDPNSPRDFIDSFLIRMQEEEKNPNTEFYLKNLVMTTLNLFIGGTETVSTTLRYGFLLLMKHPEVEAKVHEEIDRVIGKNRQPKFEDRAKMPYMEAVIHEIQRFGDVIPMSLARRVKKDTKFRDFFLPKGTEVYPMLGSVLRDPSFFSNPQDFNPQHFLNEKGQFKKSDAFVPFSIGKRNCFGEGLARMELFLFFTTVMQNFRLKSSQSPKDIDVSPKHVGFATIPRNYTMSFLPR
Nature of the assay: HLM substrate cocktail, LC-MS/MS. Conditions: coumarin 1 µM; NADPH-generating system; 0.25 mg/mL HLM; 37 °C; without 30 min preincubation; read-out: Trans-resveratrol (μM) / Without Preincubation. The assay is classed as biochemical. The source says:
HLM substrate cocktail, LC-MS/MS on CYP2A6

The next assay addresses T6, UGT1A6 (Homo sapiens, UniProt P19224).
T6 construct: native enzyme in pooled human liver microsomes (alamethicin-treated), read by N-acetylserotonin glucuronidation
T6 sequence (P19224 27-532): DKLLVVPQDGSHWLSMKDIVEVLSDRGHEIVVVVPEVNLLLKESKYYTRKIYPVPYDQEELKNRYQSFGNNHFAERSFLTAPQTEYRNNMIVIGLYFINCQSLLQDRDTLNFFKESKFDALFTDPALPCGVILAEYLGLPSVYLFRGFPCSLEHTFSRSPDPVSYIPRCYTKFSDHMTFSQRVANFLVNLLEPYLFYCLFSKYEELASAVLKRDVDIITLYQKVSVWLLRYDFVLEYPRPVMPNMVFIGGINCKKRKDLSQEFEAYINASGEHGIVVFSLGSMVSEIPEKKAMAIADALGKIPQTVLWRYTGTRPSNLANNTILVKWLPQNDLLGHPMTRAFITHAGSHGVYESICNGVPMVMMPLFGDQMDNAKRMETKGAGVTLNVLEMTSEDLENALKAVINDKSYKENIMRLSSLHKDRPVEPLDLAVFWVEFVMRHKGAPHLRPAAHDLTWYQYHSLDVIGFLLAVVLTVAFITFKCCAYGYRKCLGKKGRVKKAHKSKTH
Nature of the assay: HLM UGT substrate cocktail, LC-MS/MS. The format is biochemical. Conditions: N-acetylserotonin 1 µM; UDPGA 5 mM; alamethicin; 0.25 mg/mL HLM; 37 °C; read-out: Trans-Resveratrol. From the text:
HLM UGT substrate cocktail, LC-MS/MS on UGT1A6

The next assay deals with T7, UGT2B7 (Homo sapiens, UniProt P16662).
T7 construct: native enzyme in pooled human liver microsomes (alamethicin-treated), read by naloxone glucuronidation
T7 sequence (P16662 24-529): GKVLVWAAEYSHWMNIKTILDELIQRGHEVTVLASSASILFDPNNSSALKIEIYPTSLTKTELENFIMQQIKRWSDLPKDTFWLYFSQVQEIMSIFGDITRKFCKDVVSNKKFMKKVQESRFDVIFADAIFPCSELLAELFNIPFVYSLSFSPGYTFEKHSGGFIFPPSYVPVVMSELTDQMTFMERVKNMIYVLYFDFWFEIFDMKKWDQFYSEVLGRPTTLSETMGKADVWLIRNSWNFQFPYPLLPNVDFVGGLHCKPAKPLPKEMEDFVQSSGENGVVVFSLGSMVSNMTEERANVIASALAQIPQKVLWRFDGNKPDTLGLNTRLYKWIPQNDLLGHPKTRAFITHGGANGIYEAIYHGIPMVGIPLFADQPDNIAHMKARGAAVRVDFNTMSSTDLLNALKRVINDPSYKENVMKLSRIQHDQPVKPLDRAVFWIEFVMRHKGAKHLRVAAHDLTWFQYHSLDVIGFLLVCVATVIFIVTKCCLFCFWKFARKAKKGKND
Put plainly: HLM UGT substrate cocktail, LC-MS/MS. The format is biochemical. Conditions: naloxone 0.2 µM; UDPGA 5 mM; alamethicin; 0.25 mg/mL HLM; 37 °C; read-out: Trans-Resveratrol. The source says:
HLM UGT substrate cocktail, LC-MS/MS on UGT2B7

Assay [4] concerns the target T3, UGT1A1. Nature of the assay: HLM UGT substrate cocktail, LC-MS/MS. The format is biochemical. Conditions: SN-38 0.5 µM, UDPGA 5 mM, alamethicin, 0.25 mg/mL HLM, 37 °C. From the text:
HLM UGT substrate cocktail, LC-MS/MS on UGT1A1

For the next assay, the target named is T8, UGT1A3 (Homo sapiens, UniProt P35503).
T8 construct: native enzyme in pooled human liver microsomes (alamethicin-treated), read by chenodeoxycholic acid 24-glucuronidation
T8 sequence (P35503 29-534): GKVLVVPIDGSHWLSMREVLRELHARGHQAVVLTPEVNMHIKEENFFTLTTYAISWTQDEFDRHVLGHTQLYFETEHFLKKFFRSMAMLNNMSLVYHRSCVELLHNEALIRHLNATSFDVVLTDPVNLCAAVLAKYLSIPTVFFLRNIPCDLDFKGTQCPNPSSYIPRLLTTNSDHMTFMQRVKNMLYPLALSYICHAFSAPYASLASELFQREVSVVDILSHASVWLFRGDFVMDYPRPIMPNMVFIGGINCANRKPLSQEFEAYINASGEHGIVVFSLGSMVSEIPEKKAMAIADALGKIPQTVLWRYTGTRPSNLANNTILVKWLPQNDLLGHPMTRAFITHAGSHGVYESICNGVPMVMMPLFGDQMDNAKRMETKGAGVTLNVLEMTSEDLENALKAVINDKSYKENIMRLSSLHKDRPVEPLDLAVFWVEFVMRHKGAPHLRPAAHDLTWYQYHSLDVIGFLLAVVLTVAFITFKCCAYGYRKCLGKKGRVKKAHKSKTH
Nature of the assay: HLM UGT substrate cocktail, LC-MS/MS. The format is biochemical. Conditions: chenodeoxycholic acid 2 µM; UDPGA 5 mM; alamethicin; 0.25 mg/mL HLM; 37 °C; read-out: Trans-Resveratrol. The source says:
HLM UGT substrate cocktail, LC-MS/MS on UGT1A3

Each structure is given as a SMILES string. Like-named read-outs stand apart in the source and are kept apart here. Some results are limits rather than exact numbers.

Consider `Oc1ccc(/C=C/c2cc(O)cc(O)c2)cc1` [A, 3,5,4′-Trihydroxystilbene], for which the IC50 was > 50 µM at UGT1A4; 29.2 ± 4.5 µM in the assay on CYP3A [1] (read-out: Trans-resveratrol (μM) / Without Preincubation); > 50 µM on UGT1A9; > 50 µM at CYP2A6; > 50 µM at UGT1A6; > 50 µM at UGT2B7. The IC50 at UGT1A1 [4] (read-out: Trans-Resveratrol) was 9.57 ± 1.6 µM; on UGT1A3, > 50 µM. Moreover, the Ki at UGT1A1 [2] was 27.4 ± 3.6 µM; on CYP3A [3], 23.8 ± 2.3 µM.
Consider `Oc1ccc(/C=C\c2cc(O)cc(O)c2)cc1` [B, 3,5,4′-Trihydroxystilbene], for which the IC50 at UGT1A4, in the assay with CYP3A [1] (read-out: Cis-resveratrol (μM) / Without Preincubation), at UGT1A9, at CYP2A6, on UGT1A6 and on UGT2B7 was > 50 µM in each case. In addition, the IC50 at UGT1A1 [4] (read-out: Cis-Resveratrol) and at UGT1A3 was > 50 µM throughout.
